What all share (assay type): in vivo
Assay [1] concerns larvae of the mustard beetle (Phaedon cochleariae). Briefly: Phaedon test (PHAECO spray treatment). The settings on record: 500 g/ha, Chinese cabbage discs, after 7 days. The protocol:
Phaedon Test ([…] Spray Treatment) Solvent: 78.0 parts by weight of acetone • • 1.5 parts by weight of dimethylformamide Emulsifier: 0.5 part by weight of alkylaryl polyglycol ether To prepare an appropriate active ingredient preparation, 1 part by weight of active ingredient is mixed with the stated amounts of solvent and emulsifier, and the concentrate is diluted with emulsifier-containing water to the desired concentration. Discs of Chinese cabbage (Brassica pekinensis) are sprayed with an active ingredient preparation of the desired concentration and, after drying, populated with larvae of the mustard beetle (Phaedon cochleariae). After 7 days, the efficacy in % is determined. 100% means that all beetle larvae have been killed; 0% means that none of the beetle larvae have been killed.

Assay [2] has as its system red spider mite (Tetranychus urticae). Briefly: Tetranychus test, OP-resistant (TETRUR spray treatment). As to conditions: bean leaf discs, after 6 days. As to the method: Tetranychus Test, OP-Resistant (TETRUR Spray Treatment)
Solvent: 78.0 parts by weight of acetone • • 1.5 parts by weight of dimethylformamide
Emulsifier: 0.5 part by weight of alkylaryl polyglycol ether
To prepare an appropriate active ingredient preparation, 1 part by weight of active ingredient is mixed with the stated amounts of solvent and emulsifier, and the concentrate is diluted with emulsifier-containing water to the desired concentration. Discs of bean leaves (Phaseolus vulgaris) infested by all stages of the red spider mite (Tetranychus urticae) are sprayed with an active ingredient preparation of the desired concentration. After 6 days, the efficacy in % is determined. 100% means that all spider mites have been killed; 0% means that none of the spider mites have been killed.

For assay [3], the system named is caterpillars of the armyworm (Spodoptera frugiperda). The assay is described as follows: Spodoptera frugiperda test (SPODFR spray treatment). As to conditions: 500 g/ha, maize leaf discs, after 7 days. As to the method:
Spodoptera frugiperda Test (SPODFR Spray Treatment) Solvent: 78.0 parts by weight of acetone • • 1.5 parts by weight of dimethylformamide Emulsifier: 0.5 part by weight of alkylaryl polyglycol ether To prepare an appropriate active ingredient preparation, 1 part by weight of active ingredient is mixed with the stated amounts of solvent and emulsifier, and the concentrate is diluted with emulsifier-containing water to the desired concentration. Discs of maize leaves (Zea mays) are sprayed with an active ingredient preparation of the desired concentration and, after drying, populated with caterpillars of the armyworm (Spodoptera frugiperda). After 7 days, the efficacy in % is determined. 100% means that all caterpillars have been killed; 0% means that none of the caterpillars have been killed.

The structures appear in SMILES notation.

With `CC(C)Oc1nccnc1-n1nc(C(F)(F)F)c(-c2cc(Cl)cc(C(F)(F)F)c2)c1N` [Ex. 13], the efficacy in assay [1] turned out to be 83%.
For `Cc1nccnc1-n1nc(C(F)(F)F)c(-c2cc(Cl)cc(C(F)(F)F)c2)c1N` [Ex. 23], the efficacy in assay [2] (500 g/ha) and in assay [1] was 100% each time.
`N#Cc1nccnc1-n1nc(C(F)(F)F)c(-c2cc(Cl)cc(C(F)(F)F)c2)c1N` [Ex. 27] displayed an efficacy in assay [1] of 100%.
In assay [2] (500 g/ha), `CCOc1nccnc1-n1nc(C(F)(F)F)c(-c2cc(Cl)cc(C(F)(F)F)c2)c1NCc1ccccc1` [Ex. 35] showed an efficacy of 90%.
In the case of `CCOc1nccnc1-n1nc(C(F)(F)F)c(-c2cc(Cl)cc(C(F)(F)F)c2)c1N(Cc1ccc(OC)cc1)Cc1ccc(OC)cc1` [Ex. 43], the efficacy in assay [3] and in assay [1] was 100% each time.
In the case of `Nc1c(-c2cc(Cl)cc(C(F)(F)F)c2)c(C(F)(F)F)nn1-c1nccnc1-n1ccnc1` [Ex. 44], the efficacy in assay [3] and in assay [1] was 100% in each case.
Consider `COc1nccnc1-n1nc(C(F)(F)C(F)F)c(-c2cc(Cl)c3c(c2)OCO3)c1N` [Ex. 65], for which the efficacy is on record as 100% in assay [3], 90% in assay [2] (500 g/ha) and 100% in assay [1].
As for `COc1nccnc1-n1nc(C(F)(F)C(F)F)c(-c2cc(Cl)c3c(c2)CCO3)c1N` [Ex. 66], the values for the efficacy in assay [3], in assay [2] (500 g/ha) and in assay [1] were 100%, 90% and 100%, respectively.
Regarding `COc1nccnc1-n1nc(C(F)(F)F)c(-c2cc(Cl)c(Cl)c(C(F)(F)F)c2)c1N` [Ex. 86], the efficacy in assay [3] and in assay [1] was 100% in each case.
Molecule `C=C(C)CNc1c(-c2cc(Cl)cc(C(F)(F)F)c2)c(C(F)(F)F)nn1-c1nccnc1OC` [Ex. 96] had an efficacy in assay [2] (500 g/ha) of 100%.
Consider `COc1nccnc1-n1nc(C(F)(F)C(F)F)c(-c2cc(Cl)c(Cl)c(Cl)c2)c1N` [Ex. 116], for which the efficacy came to 100% in assay [3], 90% in assay [2] (500 g/ha) and 100% in assay [1].
As for `COc1nccnc1-n1nc(C(F)(F)F)c(-c2cc(Cl)c(N(C)C)c(Cl)c2)c1N` [Ex. 121], the efficacy in assay [3] came out at 100%; in assay [2] (100 g/ha), 80%; in assay [1] it was 100%.
On to `COc1nccnc1-n1nc(C(F)(F)F)c(-c2ccc(N(C)C)c(Cl)c2)c1N` [Ex. 122], for which the efficacy in assay [3] and in assay [1] was 100% in each case.
`COc1nccnc1-n1nc(C(F)(F)F)c(-c2cc(Cl)c(N(C)C)c(C(F)(F)F)c2)c1N` [Ex. 123]: the efficacy in assay [3] is listed as 100%; in assay [2] (500 g/ha), 80%; in assay [1], 100%.
Turning to `COc1cc(-c2c(C(F)(F)F)nn(-c3nccnc3OC)c2N)ccc1OCC(F)(F)F` [Ex. 125], the efficacy in assay [2] (500 g/ha) came out at 90%; in assay [1], 100%.
The matching figures for `CCOc1cc(-c2c(C(F)(F)F)nn(-c3nccnc3OC)c2N)ccc1OCC(F)(F)F` [Ex. 127]: 90% and 100%.
Regarding `Nc1c(-c2cc(Cl)cc(C(F)(F)F)c2)c(C(F)(F)F)nn1-c1nccnc1C(F)(F)F` [Ex. 130], the efficacy in assay [3] and in assay [1] was 100% throughout.
`COc1cc(-c2c(C(F)(F)F)nn(-c3nccnc3OC)c2N)cc(Cl)c1OCC(F)(F)F` [Ex. 134]: the efficacy in assay [3] and in assay [1] was 100% throughout.
Turning to `CCOc1cc(-c2c(C(F)(F)F)nn(-c3nccnc3OC)c2N)cc(Cl)c1OCC(F)(F)F` [Ex. 144], the efficacy in assay [3], in assay [2] (500 g/ha) and in assay [1] was 100% throughout.
`COc1nccnc1-n1nc(C(F)(F)F)c(-c2ccc3c(c2)CCC(C)(C)O3)c1N` [Ex. 145] gave an efficacy in assay [1] of 100%.
For the molecule `COc1nccnc1-n1nc(C(F)(F)F)c(-c2cc(F)c(Cl)cc2Cl)c1N` [Ex. 166], the figures for the efficacy in assay [2] (500 g/ha) and in assay [1] were 90% and 100%, respectively.

The record behind these values is patent US8513260B2, “Pyrazinylpyrazoles” (Bayer CropScience AG, priority 2009, dated 2013).
